The nature of the data set: Acute toxicity in ip dosed mouse. In kind it is organism-based. Conditions: in vivo.

A word on the LD50: it is the dose at which mortality reaches 50%. High values mean lower toxicity, low ones greater toxicity. As for `CN[C@@H]1C[C@H]2O[C@@](C)([C@@H]1OC)n1c3ccccc3c3c4c(c5c6ccccc6n2c5c31)C(=O)NC4.Cl`, the LD50 is 6.6 mg/kg.

Values taken from ChEMBL document CHEMBL1151110, “Biosynthesis of staurosporine, 1. 1H- and 13C-NMR assignments” (J Nat Prod, 1988).
